Measurements as given in patent publication US10870670B2, “Preparation of (S,S)-secoisolariciresinol diglucoside and (R,R)-secoisolariciresinol diglucoside” (The Trustees of the University of Pennsylvania, priority 2013, dated 2020).

Tests used:
Type in all cases: biochemical
[1] = Reducing power activity assay (ferricyanide reduction, absorbance at 700 nm); settings: regression line over 1-100 μM; sodium phosphate buffer pH 6.6; n=3; read-out: EC50 for reducing power (mean±std. dev.)
Method: The determination of reducing power was performed as described by Yen and Der (J. Am. Oil Chem. Soc. 1993, 70, 383). Reducing power assay determines the reducing potential of the test compound which reacts with potassium ferricyanide (Fe^+3) to form potassium ferrocyanide (Fe^+2), which subsequently reacts with ferric chloride to produce a ferric-ferrous complex that has maximum absorption at 700 nm. Various concentrations (1-500 μM) of test compounds were taken in sodium phosphate buffer (0.1 M, pH 6.6) in 96-well microplates and mixed with potassium ferricyanide (1%). Samples were incubated at 50° C. and equal volume of 10% trichloroacetic acid was added. The upper layer was mixed with deionized water (1:1:2) and ferric chloride (0.1%). The absorbance was read at 700 nm on a Bio-Rad microplate reader (Bio-Rad, Hercules, Calif.). The increase in absorbance indicates increase in reducing power.
The reducing powers of synthetic (S,S)-SDG-1, synthetic (R,R)-SDG-2, natural (S,S)-SDG-1, ascorbic acid, and α-tocopherol were determined by the reduction of K3FeCN6 in the presence of FeCl3, as measured by the absorbance of the resulting ferric-ferrous complex (FIG. 2). […] This allowed the half maximal effective concentration (EC50) for reducing power to be calculated (FIG. 3).

[2] = DPPH radical scavenging assay; settings: for EC50: regression lines over 5-100 μM, 250 μM DPPH, Tris buffer pH 7.4, 20 min, n=3, read-out: DPPH free radical scavenging activity EC50
Method: The ability of the SDGs to scavenge DPPH radicals was assessed as described by Moree et al. (Free Rad. Anitox. 2011, 1, 31) with minor modifications for use in microplates. Briefly, different concentrations of SDG isomers and other test compounds were incubated with 200 μL medium in 96-well microplates containing 0.1 M Tris buffer (pH 7.4) and 250 μM DPPH solution, and kept in the dark for 20 min. The absorbance was read at 517 nm in a Bio-Rad microplate reader. Ascorbic acid and α-tocopherol were used as known antioxidants for comparison. The radical scavenging activity was measured as a decrease in the absorbance of DPPH and calculated using the following equation: Percentage inhibition=[O.D.control−O.D.treated/O.D.control]×100.
The free radical scavenging activities of synthetic (S,S)-SDG-1 and (R,R)-SDG-2 were determined using a 2,2-diphenyl-1-pierylhydrazyl (DPPH) free radical scavenging assay and was compared to those of natural (S,S)-SDG-1, ascorbic acid, and α-tocopherol (FIG. 4). […] Establishing regression lines for the potentials at low- and mid-concentration ranges (5-100 μM) allowed the free radical EC50 scavenging activity of these compounds to be determined.

[3] = Hydroxyl radical scavenging potential (HORAC assay); settings: for Antioxidant capacity Against Hydroxyl Radicals (GAE): HORAC assay, Fenton reaction, gallic acid equivalent, mean±SD, n=3; for Inhibition of fluorescein oxidation by hydroxyl radicals relative to gallic acid: HORAC, gallic acid standard, concentration-dependent
Method: The ability of SDGs to scavenge hydroxyl radicals in a chemical system was evaluated using HORAC Assay kit (# TA30) obtained from Oxford Biomedical Research. Hydroxyl radicals were generated from hydrogen peroxide by Fenton reaction. Oxidation of fluorescein was measured on a fluorescence microplate reader. Antioxidants inhibit fluorescein oxidation. Gallic acid was used as a standard for calibration curve. Calculations used SDG concentration that fit the linear part of the calibration curve. SDG concentrations were used in the range of […]. Antioxidant capacity against hydroxyl radicals was expressed as gallic acid equivalent (GAE).
(§1) The ability of synthetic (S,S)-SDG-1 and (R,R)-SDG-2 to scavenge hydroxyl and peroxyl radicals as manifested by their inhibition of the oxidation of fluorescein was assessed by the hydroxyl radical averting capacity (HORAC, gallic acid standard) and peroxyl radical absorbance capacity assays (ORAC, trolox standard), respectively (Table 1). […] However, synthetic (S,S)-SDG-1 activity differed from natural (S,S)-SDG-1, likely due to trace impurities.
(§2) In Table 1, hydroxyl radicals were generated from hydrogen peroxide by Fenton reaction. Peroxyl radicals were generated by AAPH (2,2′-azobis(2-amidinopropane) dihydrochloride). Oxidation of fluorescein was measured. Calculations used SDG concentrations that fitted the linear part of the calibration curve. The results are presented as mean±standard deviation (n=3).

[4] = Peroxyl radical scavenging potential (ORAC assay); settings: for Antioxidant capacity Against Peroxyl Radicals (TE): ORAC assay, AAPH-generated radicals, Trolox equivalents, mean±SD, n=3; for Inhibition of fluorescein oxidation by peroxyl radicals relative to trolox: ORAC, trolox standard, AAPH
Method: The ability of SDGs to scavenge peroxyl radicals in a chemical system was evaluated using an ORAC assay kit (# STA345) obtained from Cell Biolab (San Diego, Calif.). Peroxyl radicals were generated by AAPH (2,2′-azobis(2-amidinopropanedihydrochloride). Oxidation of fluorescein was measured using a fluorescence microplate reader. Antioxidants inhibit fluorescein oxidation. Trolox was used as a standard for calibration curve. Calculations used SDG concentrations that fit the linear part of the calibration curve. SDG concentrations were used in the range of 8 μM-1 mM. Antioxidant capacity against peroxyl radicals was expressed as Trolox equivalent (TE).
as §1, §2

EC50 [1] [µM] | EC50 [2] [µM] | SMILES | Antioxidant capacity Against Hydroxyl Radicals (GAE) [3] [GAE] | Antioxidant capacity Against Peroxyl Radicals (TE) [4] [TE] | Inhibition of fluorescein oxidation by peroxyl radicals relative to trolox [4] | Inhibition of fluorescein oxidation by hydroxyl radicals relative to gallic acid [3] | DPPH inhibition at higher concentrations ([2]; 250-500 μM)
1130 ± 88.8 | 440 ± 11.8 | O=C1O[C@H]([C@@H](O)CO)C(O)=C1O [ascorbic acid, reference compound] |  |  |  |  | 
292 ± 27.7 | 158 ± 21.3 | COc1cc(C[C@H](CO[C@@H]2O[C@H](CO)[C@@H](O)[C@H](O)[C@H]2O)[C@@H](CO[C@@H]2O[C@H](CO)[C@@H](O)[C@H](O)[C@H]2O)Cc2ccc(O)c(OC)c2)ccc1O [synthetic (S,S)-SDG-1, (S,S)-secoisolariciresinol diglucoside] | 2.09 ± 0.16 | 3.03 ± 0.04 | two-fold increase in potency over the trolox standard | two-fold higher than gallic acid | significantly lower than those exerted by (R,R)-SDG-2 and natural (S,S)-SDG-1

Continued, molecule first:

SMILES | EC50 [1] [µM] | EC50 [2] [µM] | Antioxidant capacity Against Hydroxyl Radicals (GAE) [3] [GAE] | Antioxidant capacity Against Peroxyl Radicals (TE) [4] [TE] | Inhibition of fluorescein oxidation by peroxyl radicals relative to trolox [4] | Inhibition of fluorescein oxidation by hydroxyl radicals relative to gallic acid [3] | DPPH inhibition at higher concentrations ([2]; 250-500 μM)
COc1cc(C[C@H](CO[C@@H]2O[C@H](CO)[C@@H](O)[C@H](O)[C@H]2O)[C@@H](CO[C@@H]2O[C@H](CO)[C@@H](O)[C@H](O)[C@H]2O)Cc2ccc(O)c(OC)c2)ccc1O [natural (S,S)-SDG-1, (S,S)-secoisolariciresinol diglucoside] | 275 ± 13.2 | 83.9 ± 2.8 | 3.68 ± 0.27 | 2.55 ± 0.11 | two-fold increase in potency over the trolox standard |  | 
COc1cc(C[C@@H](CO[C@@H]2O[C@H](CO)[C@@H](O)[C@H](O)[C@H]2O)[C@H](CO[C@@H]2O[C@H](CO)[C@@H](O)[C@H](O)[C@H]2O)Cc2ccc(O)c(OC)c2)ccc1O [synthetic (R,R)-SDG-2, (R,R)-secoisolariciresinol diglucoside] | 332 ± 21.2 | 124 ± 8.67 | 1.96 ± 0.27 | 2.20 ± 0.10 | two-fold increase in potency over the trolox standard | two-fold higher than gallic acid | 
Cc1c(C)c2c(c(C)c1O)CC[C@@](C)(CCC[C@H](C)CCC[C@H](C)CCCC(C)C)O2 [α-tocopherol, reference compound] | 945 ± 148 | 133 ± 12.6 |  |  |  |  | 
